According to ChEMBL document CHEMBL1201862, “PubChem BioAssay data set” (2004):
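Assay format: 96-well plates, 48-hour exposure. GI50: concentration for 50% inhibition of growth.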 Active and inactive are the calls of the source. No stated cut-off is given here; in the data, active = GI50 up to about 1.1 µM and inactive = higher.

What was measured:
Assay in all cases: growth of human tumour cells (NCI), 48 h
[1] = system: HT-29
[2] = system: CCRF-CEM
[3] = system: SNB-19
[4] = system: SF-539
[5] = system: NCI-H522
[6] = system: LXFL 529
[7] = system: DMS-114
[8] = system: SNB-78
[9] = system: HCT-15
[10] = system: M19-MEL
[11] = system: DLD-1
[12] = system: CAKI-1
[13] = system: SW-620
[14] = system: KM-20L2
[15] = system: HOP-92

Compound	GI50 [1]	GI50 [2]	GI50 [3]	GI50 [4]	GI50 [5]	GI50 [6]	GI50 [7]	GI50 [8]	GI50 [9] [µM]	GI50 [10]	GI50 [11]	GI50 [12]	GI50 [13]	GI50 [14]	GI50 [15]
Clc1cc2ns[s+]c2cc1Cl	29.3 µM (inactive)	33.4 µM (inactive)	> 74.8 µM (inactive)	36.6 µM (inactive)	27.6 µM (inactive)	4.72 µM (inactive)	29.1 µM (inactive)	> 100 µM (inactive)	4.34	61.4 µM (inactive)	13.1 µM (inactive)	18.9 µM (inactive)	32.8 µM (inactive)	14.3 µM (inactive)	36.1 µM (inactive)
CN1C(=S)CSc2ccccc21	> 100 µM (inactive)	> 100 µM (inactive)	> 100 µM (inactive)	> 100 µM (inactive)	> 100 µM (inactive)	> 100 µM (inactive)	> 100 µM (inactive)	> 100 µM (inactive)	> 100	> 100 µM (inactive)	> 100 µM (inactive)	> 100 µM (inactive)	> 100 µM (inactive)	> 100 µM (inactive)	90.2 µM (inactive)
CC(C)[C@H](CCl)NC(=O)c1cccc(C(=O)N[C@H](CCl)C(C)C)n1 (stereo in doubt)	> 100 µM (inactive)	> 100 µM (inactive)	> 100 µM (inactive)	> 100 µM (inactive)	> 100 µM (inactive)	> 100 µM (inactive)	> 100 µM (inactive)	> 100 µM (inactive)	> 100	> 100 µM (inactive)	> 100 µM (inactive)	> 100 µM (inactive)	> 100 µM (inactive)	> 100 µM (inactive)	> 100 µM (inactive)
NC(=S)NNC(=O)CCC(=O)Nc1ccc(Cl)cc1Cl	> 100 µM (inactive)	> 100 µM (inactive)	> 100 µM (inactive)	> 100 µM (inactive)	> 100 µM (inactive)	26.1 µM (inactive)	41.7 µM (inactive)	> 100 µM (inactive)	50.4	> 100 µM (inactive)	> 100 µM (inactive)	> 100 µM (inactive)	> 100 µM (inactive)	> 100 µM (inactive)	> 100 µM (inactive)
Cc1ccccc1NC(=O)c1nc(S)nc(N)c1-c1ccccc1C	> 100 µM (inactive)	> 100 µM (inactive)	> 100 µM (inactive)	> 100 µM (inactive)	> 100 µM (inactive)	> 100 µM (inactive)	> 100 µM (inactive)	> 100 µM (inactive)	> 100	> 100 µM (inactive)	> 100 µM (inactive)	> 100 µM (inactive)	> 100 µM (inactive)	> 100 µM (inactive)	> 100 µM (inactive)
COc1cc2c(c(OC)c1OC)-c1ccc(SC)c(=O)cc1C(CC(=O)Oc1ccccc1F)C2 (stereo not given)	0.00841 µM (active)	0.0132 µM (active)	0.0139 µM (active)	< 0.0075 µM (active)	0.0108 µM (active)	0.0266 µM (active)	0.0152 µM (active)	0.0206 µM (active)	0.0122	0.0218 µM (active)	0.0196 µM (active)	0.0172 µM (active)	0.00802 µM (active)	0.0127 µM (active)	0.0377 µM (active)
Cc1c(CCO)c(O)n2c(nc3ccccc32)c1C#N	44.3 µM (inactive)	29.4 µM (inactive)	30.3 µM (inactive)	> 100 µM (inactive)	34.7 µM (inactive)	36.6 µM (inactive)	44.5 µM (inactive)	61 µM (inactive)	45.7	> 100 µM (inactive)	> 100 µM (inactive)	59 µM (inactive)	54.1 µM (inactive)	66.5 µM (inactive)	33.1 µM (inactive)
O=C(Cc1nc2ccccc2s1)C(=O)Nc1cccc(C(F)(F)F)c1	> 100 µM (inactive)	> 100 µM (inactive)	> 100 µM (inactive)	> 100 µM (inactive)	> 100 µM (inactive)	> 100 µM (inactive)	> 100 µM (inactive)	> 100 µM (inactive)	> 100	> 100 µM (inactive)	> 100 µM (inactive)	> 100 µM (inactive)	> 100 µM (inactive)	> 100 µM (inactive)	> 100 µM (inactive)
